Assay results as given in the supplement of paper PMC3974653.
Where a name gives a salt, the structure may show the parent alone.

system: MTT (mouse pheochromocytoma); assay: IC50 of cell viability (ATP content); details: (24 or 48 h)
In short: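 Library compounds in DMSO (23 nl by pintool, 8 concentrations, final 0.5 nM to 46 µM) were applied for 24 or 48 hrs to MTT mouse pheochromocytoma cells that had been cultured overnight at 37°C, 5% CO2 in white 1536-well plates. Cell viability was measured by CellTiter-Glo ATP luminescence, read after 15 minutes, with positive-control wells set at 100% and DMSO wells at 0%. A four-parameter logistic fit of the normalised signals yielded the IC50.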

| SMILES | IC50 of cell viability [µM] |
| --- | --- |
| CNC1=C[N+]([O-])=C(c2ccccc2)c2cc(Cl)ccc2N1 [CHLORDIAZEPOXIDE] | > 46 |
| C[C@]\12CCC(=O)\C=C1CC[C@H]3[C@@H]4CC[C@](O)(C(=O)CO)[C@@]4(C)C[C@H](O)[C@H]23 [HYDROCORTISONE] | > 46 |
| NCCO/C=C/C(N)C(=O)O (configuration not stated) | > 46 |
| N=C(NCCCCCCNC(=N)NC(=N)Nc1ccc(Cl)cc1)NC(=N)Nc1ccc(Cl)cc1 [Chlorhexidine] | > 46 |
| CC(=O)N(C[C@@H](C)C(=O)O)c1c(I)cc(I)c(N)c1I [Iocetamic acid] | > 46 |
| O=P(O)(O)OC[C@H]1O[C@](O)(COP(=O)(O)O)[C@@H](O)[C@@H]1O [FOSFRUCTOSUM] | > 46 |
| CCCCOC(=O)c1ccccc1C(=O)OCc1ccccc1 [Butyl benzyl phthalate] | > 46 |
| C/C=C/C=N/NC(=O)c1ccncc1 [Crotoniazida] | > 46 |
| CCCC(C)(COC(N)=O)COC(=O)NC(C)C (configuration not stated) [Carisoprodol] | > 46 |
| COc1ccc2c(c1)c(CC(=O)OCC(=O)O)c(C)n2C(=O)c1ccc(Cl)cc1 [Acemetacin] | > 46 |
| CCCCCCCCCCCCCCCCCCCCCCO [DOCOSANOL] | > 46 |
| O=C(O)Cc1cccc2ccccc12 [1-Naphthalene acetic acid] | > 46 |
| c1ccc2c(c1)Nc1ccccc1S2 [Fenotiazina] | > 46 |
| CN1\C(=C(\O)C2=CC=CC=C2[S+]1([O-])=O)C(=O)NC3=NC=C(C)S3 [MELOXICAM] | > 46 |
| CCCCOc1cc(C(=O)NCCN(CC)CC)c2ccccc2n1 [Dibucaine] | > 46 |
| O[C@H]1\C=C/C2[C@H]3CC4=CC=C(O)C5=C4[C@@]2(CCN3)[C@H]1O5 (some centres not stated) [Normorphine] | > 46 |
| CC(NC(CCc1ccccc1)C(=O)O)C(=O)N1CCCC1C(=O)O (configuration not stated) [Enalapril acid] | > 46 |
| COC1=C(OC)C2=C(CC[C@@H](NC(C)=O)C/3=C/C(=O)/C(=C/C=C23)SC)C=C1O[C@@H]4O[C@@H](CO)[C@@H](O)[C@@H](O)[C@H]4O [Thiocolchicoside] | > 46 |
| CC/1=N/C2=CC=CC=C2C(=O)N1C3=C(Cl)C=CC=C3 [Mecloqualone] | > 46 |

| SMILES | IC50 of cell viability [µM] |
| --- | --- |
| C1C\N=C(\COC2=C(C=CC=C2)C3CC3)N1 [CIRAZOLINE] | > 46 |
| C[C@H](CCC(=O)O)[C@H]1CC[C@@H]2[C@H]3[C@@H](C[C@@H](O)[C@]21C)[C@]1(C)CC[C@H](O)C[C@@H]1C[C@@H]3O [Cholic Acid] | > 46 |
| O=C([O-])c1cc(Oc2ccc(C(F)(F)F)cc2Cl)ccc1[N+](=O)[O-] [Acifluorfen sodium] | > 46 |
| IC(I)I [Iodoform] | > 46 |
| O=C1/C(=C2\Nc3ccccc3C2=O)Nc2ccccc21 [INDIGO] | > 46 |
| CCC/C=C/C=C/C(=O)OC1/C(=C/C(=O)OC)CC2CC(C(C)O)OC(=O)CC(O)CC3CC(OC(C)=O)C(C)(C)C(O)(CC4C/C(=C/C(=O)OC)CC(C=CC(C)(C)C1(O)O2)O4)O3 (configuration not stated) [BRYOSTATIN-1] | > 46 |
| Cc1cccc(N(C)C(=S)Oc2ccc3c(c2)CCC3)c1 [TOLINDATE] | > 46 |
| CC(O)C(=O)O (configuration not stated) [Lactic acid] | > 46 |
| Oc1cc(O)c(Cl)cn1 [GIMERACIL] | > 46 |
| C[N+](C)(C)CCO [Choline bromide] | > 46 |
| C[C@]12CCC3C(CCC4=CC(=O)CC[C@@H]43)C1CCC2O (some centres not stated) [19-Norandrostenolone] | > 46 |
| CN(C)C(=O)CNC(=O)Cc1ccccc1 [Acetamide, N,N-dimethyl-2-(2-phenylacetamido)-] | > 46 |
| O=C([O-])CN(CCN(CC(=O)[O-])CC(=O)[O-])CC(=O)[O-].[Fe+3].[Na+] [Feredato sodico] | > 46 |
| COc1cc2nc(N3CCN(C(=O)[C@H]4COc5ccccc5O4)CC3)nc(N)c2cc1OC.C[S+](=O)([O-])O [Doxazosin mesylate] | > 46 |
| CCOC(=O)C(CS)NCCN[C@@H](CS)C(=O)OCC (some centres not stated) | > 46 |
| Nc1ccc(Cl)cc1N [4-Chloro-o-phenylenediamine] | > 46 |
| Br.CC(N)Cc1ccc(O)cc1 (configuration not stated) [HYDROXYAMPHETAMINE HYDROBROMIDE] | > 46 |
| [Cl][Pt][Cl] [cis-Diamineplatinum(II) dichloride] | > 46 |
| O=C1CCO1 [beta-Propiolactone] | > 46 |

Now from value to compound:

| IC50 of cell viability [µM] | SMILES |
| --- | --- |
| > 46 | CNC1CCCN(c2c(F)cc3c(=O)c(C(=O)O)cn(C4CC4)c3c2OC)C1 (configuration not stated) [BALOFLOXACIN HYDRATE] |
| > 46 | O=C(NCCCN1CCOCC1)c1ccc(Cl)cc1 [Eprobemida] |
| > 46 | Nc1cc(O)nc(N)n1 [2,4-Diamino-6-hydroxypyrimidine] |
| > 46 | CC1CCC(O)C/C1=C\C=C1/CCCC2(C)C1CCC2C(C)/C=C/C(C)C(C)C (configuration not stated) [DIHYDROTACHYSTEROL] |
| > 46 | OCc1cccnc1 [3-Pyridinemethanol] |
| > 46 | Cc1ccsc1/C=C\C1=NCCCN1C.O=C(O)[C@@H](O)[C@@H](O)C(=O)O [Morantel tartrate] |
| > 46 | Cc1ccc(C(C)C)c(O)c1 [Thymol] |
| > 46 | Nc1ccc(O)c([N+](=O)[O-])c1 [4-Amino-2-nitrophenol] |
| > 46 | CC[N+](CC)(CC(=O)Nc1c(C)cccc1C)Cc1ccccc1.O=C([O-])c1ccccc1 |
| > 46 | CCOC(=O)Cc1ccc(-c2ccccc2)cc1 [FELBINAC ETHYL] |
| > 46 | CCC(=O)OCC(=O)[C@@]1(OC(=O)CC)[C@@H](C)C[C@H]2[C@@H]3CCC4=CC(=O)C=C[C@]4(C)[C@@]3(F)[C@@H](O)C[C@@]21C [dexamethasone dipropionate] |
| > 46 | CN[C@@H]1CCc2[nH]c3ccc(C(N)=O)cc3c2C1.O.O=C(O)CCC(=O)O [Frovatriptan Succinate Monohydrate] |
| > 46 | Cc1cc2c(cc1[S+](N)(=O)[O-])[S+](=O)([O-])CCC2 [Meticrane] |
| > 46 | CC(=O)CC/C=C(\C)CC/C=C(/C)CC/C=C(\C)CCC=C(C)C [TEPRENONE] |
| > 46 | OCCN1CCN(CCCN2c3ccccc3Sc3ccc(Cl)cc32)CC1 [Perphenazine] |
| > 46 | CCCCNc1ccc(C(=O)OCCN(C)C)cc1 |
| > 46 | COc1ccc(N[S+](=O)([O-])c2ccc(N)cc2)nn1 [Sulfamethoxypyridazine] |

| IC50 of cell viability [µM] | SMILES |
| --- | --- |
| > 46 | CCOC(=O)c1ccc(C#Cc2ccc3c(c2)C(C)(C)CCS3)nc1 [TAZAROTENE] |
| > 46 | CCCCCCCCCCCCCCCCCCO [STEARLY ALCOHOL] |
| > 46 | NC(=S)N[S+](=O)([O-])c1ccc(N)cc1 [SULFATOLAMIDE] |
| > 46 | CC1(C)CCC(NC(=O)[C@@H](N)CCC(=O)O)CC1 [CR 2249] |
| > 46 | CC1(C)OC[C@@H](COC(=O)CCc2ccc(OC[C@@H](O)CNCCNC(=O)N3CCOCC3)cc2)O1 [Landiolol] |
| > 46 | Nc1ccc(C(=O)[O-])c(O)c1 [Pasiniazid] |
| > 46 | COCCOC(=O)C1=C(C)NC(C)=C(C(=O)OC/C=C/c2ccccc2)C1c1cccc([N+](=O)[O-])c1 (configuration not stated) [Cilnidipine] |
| > 46 | CC[N+](C)(CC)CCOC(=O)C(O)(c1ccccc1)C1CCCCC1 (configuration not stated) [OXYPHENONIUM BROMIDE] |
| > 46 | CCCC(CCC)C(N)=O [Valpromide] |
| > 46 | CCCCC(=O)O[C@]1(C(=O)CO)[C@H](C)C[C@H]2[C@@H]3CCC4=CC(=O)C=C[C@]4(C)[C@@]3(F)[C@@H](O)C[C@@]21C [DEXAMETHASONE VALERATE] |
| > 46 | C[C@@H](O)[C@@H]1NC(=O)[C@H](CCCCN)NC(=O)[C@@H](Cc2c[nH]c3ccccc23)NC(=O)[C@H](Cc2ccccc2)NC(=O)[C@@H](NC(=O)[C@H](N)Cc2ccccc2)CSSC[C@@H](C(=O)N[C@H](CO)[C@@H](C)O)NC1=O [Octreotide] |
| > 46 | O=C(O)c1ccccn1 [CHROMIUM PICOLINATE] |
| > 46 | O.O=C([O-])CC([S][Au])C(=O)[O-].[Na+].[Na+] (configuration not stated) [Sodium aurothiomalate hydrate] |
| > 46 | CC[C@](C)(CN(C)C)OC(=O)c1ccccc1 [Amyleine hydrochloride] |
| > 46 | CC[N+](C)(C)Cc1ccccc1Br.Cc1ccc(S(=O)(=O)[O-])cc1 [Bretylium tosylate] |
| > 46 | C=CC1=C(C(=O)O)N2C(=O)C(NC(=O)/C(=N\O)c3csc(N)n3)C2SC1 (configuration not stated) [CEFDINIR] |
| > 46 | C[C@@H](O)[C@H]1C(=O)N2C(C(=O)O)=C(S[C@@H]3CN[C@H](CN[S+](N)(=O)[O-])C3)[C@H](C)[C@H]12 [DORIPENEM HYDRATE] |
